Molecules are shown by their SMILES.

A word on the IC50: it is the midpoint of a concentration-inhibition curve.

In the assay the target is T1, His-tagged full-length RSK2 (RPS6KA3) (Homo sapiens, UniProt P51812).
T1 construct: His-tagged full-length RSK2 (RPS6KA3, Invitrogen PV3323); His; purchased Invitrogen PV3323
T1 sequence (P51812 whole entry): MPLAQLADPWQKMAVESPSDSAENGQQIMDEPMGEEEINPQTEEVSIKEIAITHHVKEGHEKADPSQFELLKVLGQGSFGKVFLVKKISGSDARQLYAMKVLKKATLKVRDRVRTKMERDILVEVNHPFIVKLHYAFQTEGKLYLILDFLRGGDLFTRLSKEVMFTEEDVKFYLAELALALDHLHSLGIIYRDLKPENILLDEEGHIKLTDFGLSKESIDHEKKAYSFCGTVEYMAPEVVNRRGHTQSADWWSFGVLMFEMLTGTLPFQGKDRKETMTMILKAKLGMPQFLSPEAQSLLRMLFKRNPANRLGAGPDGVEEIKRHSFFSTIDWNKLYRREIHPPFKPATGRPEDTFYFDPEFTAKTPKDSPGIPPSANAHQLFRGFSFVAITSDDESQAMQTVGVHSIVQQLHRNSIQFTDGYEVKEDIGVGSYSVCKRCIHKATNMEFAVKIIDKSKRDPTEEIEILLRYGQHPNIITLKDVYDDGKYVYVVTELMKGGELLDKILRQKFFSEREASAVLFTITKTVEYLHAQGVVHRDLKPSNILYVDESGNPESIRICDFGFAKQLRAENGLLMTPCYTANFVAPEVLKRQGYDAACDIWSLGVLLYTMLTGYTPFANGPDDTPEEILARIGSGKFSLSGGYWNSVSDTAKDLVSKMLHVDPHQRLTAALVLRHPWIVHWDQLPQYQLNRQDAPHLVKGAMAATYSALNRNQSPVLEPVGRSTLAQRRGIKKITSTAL
The assay can be described thus: RSK2 Omnia Assay for compound IC50 determination. The format is biochemical. Conditions: ATP 15 μM, n=2, read-out: Mean RSK2 Biochem IC50. An outline of the steps:
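Continuous fluorescence assay (ex 360/em 485 nm) of SOX-peptide (Omnia ST Peptide 6, 5 μM) phosphorylation with ATP 15 μM (Km 16.3 μM). Enzyme was […], in pH 7.5 HEPES/MgCl2 buffer with 1% DMSO. IC50 came from 11-point threefold dilutions ([…]) by four-parameter fit of initial slopes, in duplicate; Ki by Cheng-Prusoff assuming competitive inhibition.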
As to `CCOc1ccc(N2C(=O)[C@@H](C)N(CCC(C)C)c3nc(Nc4cc(F)c5[nH]ncc5c4)ncc32)cc1C#N` [Example 92, 2-ethoxy-5-[(7R)-2-[(7-fluoro-1H-indazol-5-yl)amino]-7-methyl-8-(3-methylbutyl)-6-oxo-7,8-dihydropteridin-5(6H)-yl]benzonitrile], the IC50 was at most 0.1 µM.

Take `CC(C)CCN1c2nc(Nc3cc(F)c4[nH]ncc4c3)ncc2N(c2ccc(OC(C)C)c(C#N)c2)C(=O)[C@H]1C` [Example 93, 5-[(7R)-2-[(7-fluoro-1H-indazol-5-yl)amino]-7-methyl-8-(3-methylbutyl)-6-oxo-7,8-dihydropteridin-5(6H)-yl]-2-(propan-2-yloxy)benzonitrile]: the concentration for half-maximal inhibition (IC50) was at most 0.1 µM.

Regarding `CC(C)N1c2nc(Nc3ccc4c(c3)CC(=O)N4)ncc2N(c2ccccc2)C(=O)C1C` (stereo not shown) [Example 94, 7-methyl-2-[(2-oxo-2,3-dihydro-1H-indol-5-yl)amino]-5-phenyl-8-(propan-2-yl)-7,8-dihydropteridin-6(5H)-one], the IC50 was in the range of 0.1 to 1 µM.

`CC1C(=O)N(c2ccccc2)c2cnc(Nc3ccc4[nH]ncc4c3)nc2N1c1ccccc1` (stereo not shown) [Example 178, 2-(1H-indazol-5-ylamino)-7-methyl-5,8-diphenyl-7,8-dihydropteridin-6(5H)-one]: the 50% inhibitory concentration (IC50) is at most 0.1 µM.

On to `C[C@@H]1C(=O)N(c2cccc(C#N)c2)c2cnc(Nc3ccc4[nH]ncc4c3)nc2N1C1CCC(C)(C)CC1` [Example 207, 3-[(7R)-8-(4,4-dimethylcyclohexyl)-2-(1H-indazol-5-ylamino)-7-methyl-6-oxo-7,8-dihydropteridin-5(6H)-yl]benzonitrile], for which the IC50 is at most 0.1 µM.

Consider `C[C@@H]1C(=O)N(c2cccnc2)c2cnc(Nc3cc(F)c4[nH]ncc4c3)nc2N1C1CCC(C)(C)CC1` [Example 208, (7R)-8-(4,4-dimethylcyclohexyl)-2-[(7-fluoro-1H-indazol-5-yl)amino]-7-methyl-5-(pyridin-3-yl)-7,8-dihydropteridin-6(5H)-one], for which the IC50 was at most 0.1 µM.

`C[C@@H]1C(=O)N(c2cccc(C#N)c2)c2cnc(Nc3cc(F)c4[nH]ncc4c3)nc2N1C1CCC(C)(C)CC1` [Example 209, 3-[(7R)-8-(4,4-dimethylcyclohexyl)-2-[(7-fluoro-1H-indazol-5-yl)amino]-7-methyl-6-oxo-7,8-dihydropteridin-5(6H)-yl]benzonitrile]: the half-inhibitory concentration (IC50) is at most 0.1 µM.

On to `COc1ccc(N2C(=O)[C@@H](C)N(C3CCC(C)(C)CC3)c3nc(Nc4cc(F)c5[nH]ncc5c4)ncc32)cc1OC` [Example 210, (7R)-5-(3,4-dimethoxyphenyl)-8-(4,4-dimethylcyclohexyl)-2-[(7-fluoro-1H-indazol-5-yl)amino]-7-methyl-7,8-dihydropteridin-6(5H)-one], for which the 50% inhibitory concentration (IC50) is at most 0.1 µM.

On to `C[C@@H]1C(=O)N(c2cccc(F)c2)c2cnc(Nc3cc(F)c4[nH]ncc4c3)nc2N1C1CCC(C)(C)CC1` [Example 211, (7R)-8-(4,4-dimethylcyclohexyl)-2-[(7-fluoro-1H-indazol-5-yl)amino]-5-(3-fluorophenyl)-7-methyl-7,8-dihydropteridin-6(5H)-one], for which the IC50 is at most 0.1 µM.

`C[C@@H]1C(=O)N(c2ccc(N3CCCC3)c(C#N)c2)c2cnc(Nc3cc(F)c4[nH]ncc4c3)nc2N1C1CCC(C)(C)CC1` [Example 212, 5-[(7R)-8-(4,4-dimethylcyclohexyl)-2-[(7-fluoro-1H-indazol-5-yl)amino]-7-methyl-6-oxo-7,8-dihydropteridin-5(6H)-yl]-2-(pyrrolidin-1-yl)benzonitrile]: the concentration for half-maximal inhibition (IC50) was at most 0.1 µM.

Regarding `C[C@@H]1C(=O)N(c2ccc(N3CCOCC3)nc2)c2cnc(Nc3cc(F)c4[nH]ncc4c3)nc2N1C1CCC(C)(C)CC1` [Example 213, (7R)-8-(4,4-dimethylcyclohexyl)-2-[(7-fluoro-1H-indazol-5-yl)amino]-7-methyl-5-[6-(morpholin-4-yl)pyridin-3-yl]-7,8-dihydropteridin-6(5H)-one], the half-inhibitory concentration (IC50) was at most 0.1 µM.

On to `C[C@@H]1C(=O)N(c2ccc(N3CCCC3)nc2)c2cnc(Nc3cc(F)c4[nH]ncc4c3)nc2N1C1CCC(C)(C)CC1` [Example 214, (7R)-8-(4,4-dimethylcyclohexyl)-2-[(7-fluoro-1H-indazol-5-yl)amino]-7-methyl-5-[6-(pyrrolidin-1-yl)pyridin-3-yl]-7,8-dihydropteridin-6(5H)-one], for which the IC50 was at most 0.1 µM.

Take `C[C@@H]1C(=O)N(c2ccc(N3CCCCC3)nc2)c2cnc(Nc3cc(F)c4[nH]ncc4c3)nc2N1C1CCC(C)(C)CC1` [Example 215, (7R)-8-(4,4-dimethylcyclohexyl)-2-[(7-fluoro-1H-indazol-5-yl)amino]-7-methyl-5-[6-(piperidin-1-yl)pyridin-3-yl]-7,8-dihydropteridin-6(5H)-one]: the IC50 was at most 0.1 µM.

On to `C[C@@H]1C(=O)N(c2cccc(C#N)c2)c2cnc(Nc3ccc4[nH]ncc4c3F)nc2N1C1CCCC1` [Example 216, 3-[(7R)-8-cyclopentyl-2-[(4-fluoro-1H-indazol-5-yl)amino]-7-methyl-6-oxo-7,8-dihydropteridin-5(6H)-yl]benzonitrile], for which the IC50 is at most 0.1 µM.

Consider `CC[C@@H]1C(=O)N(c2cccc(C#N)c2)c2cnc(Nc3cc(F)c4[nH]ncc4c3)nc2N1C1CCCC1` [Example 217, 3-[(7R)-8-cyclopentyl-7-ethyl-2-[(7-fluoro-1H-indazol-5-yl)amino]-6-oxo-7,8-dihydropteridin-5(6H)-yl]benzonitrile], for which the IC50 is at most 0.1 µM.

For `N#Cc1cccc(N2C(=O)[C@@H](CO)N(C3CCCC3)c3nc(Nc4cc(F)c5[nH]ncc5c4)ncc32)c1` [Example 218, 3-[(7R)-8-cyclopentyl-2-[(7-fluoro-1H-indazol-5-yl)amino]-7-(hydroxymethyl)-6-oxo-7,8-dihydropteridin-5(6H)-yl]benzonitrile], the IC50 is at most 0.1 µM.

In the case of `C[C@@H]1C(=O)N(c2cccc(C#N)c2)c2cnc(Nc3cc(F)c4[nH]ncc4c3)nc2N1C1CCCC1` [Example 219, 3-[(7R)-8-cyclopentyl-2-[(7-fluoro-1H-indazol-5-yl)amino]-7-methyl-6-oxo-7,8-dihydropteridin-5(6H)-yl]benzonitrile], the IC50 is at most 0.1 µM.

As for `N#Cc1cccc(N2C(=O)[C@@H](CO)N(C3CCCC3)c3nc(Nc4ccc5[nH]ncc5c4)ncc32)c1` [Example 220, 3-[(7R)-8-cyclopentyl-7-(hydroxymethyl)-2-(1H-indazol-5-ylamino)-6-oxo-7,8-dihydropteridin-5(6H)-yl]benzonitrile], the IC50 is at most 0.1 µM.

`N#Cc1cccc(N2C(=O)[C@@H](CF)N(C3CCCC3)c3nc(Nc4cc(F)c5[nH]ncc5c4)ncc32)c1` [Example 221, 3-[(7S)-8-cyclopentyl-2-[(7-fluoro-1H-indazol-5-yl)amino]-7-(fluoromethyl)-6-oxo-7,8-dihydropteridin-5(6H)-yl]benzonitrile]: the IC50 was at most 0.1 µM.

As to `N#Cc1cccc(N2C(=O)[C@@H](CF)N(C3CCCC3)c3nc(Nc4ccc5[nH]ncc5c4)ncc32)c1` [Example 222, 3-[(7S)-8-cyclopentyl-7-(fluoromethyl)-2-(1H-indazol-5-ylamino)-6-oxo-7,8-dihydropteridin-5(6H)-yl]benzonitrile], the half-maximal inhibitory concentration (IC50) is at most 0.1 µM.

For `C[C@@H]1C(=O)N(c2cccc(C#N)c2)c2cnc(Nc3cc(F)c4[nH]ncc4c3)nc2N1C1CCC(F)(F)CC1` [Example 260, 3-[(7R)-8-(4,4-difluorocyclohexyl)-2-[(7-fluoro-1H-indazol-5-yl)amino]-7-methyl-6-oxo-7,8-dihydropteridin-5(6H)-yl]benzonitrile], the concentration for half-maximal inhibition (IC50) is at most 0.1 µM.

As for `C[C@@H]1C(=O)N(c2cccc(C#N)c2)c2cnc(Nc3cc(F)c4[nH]ncc4c3)nc2N1C1CCC2(CC1)CC2` [Example 297, 3-[(7R)-2-[(7-fluoro-1H-indazol-5-yl)amino]-7-methyl-6-oxo-8-(spiro[2.5]oct-6-yl)-7,8-dihydropteridin-5(6H)-yl]benzonitrile], the IC50 is at most 0.1 µM.

Consider `C[C@@H]1C(=O)N(c2cccnc2)c2cnc(Nc3cc(F)c4[nH]ncc4c3)nc2N1C1CCC2(CC1)CC2` [Example 298, (7R)-2-[(7-fluoro-1H-indazol-5-yl)amino]-7-methyl-5-(pyridin-3-yl)-8-(spiro[2.5]oct-6-yl)-7,8-dihydropteridin-6(5H)-one], for which the concentration for half-maximal inhibition (IC50) was at most 0.1 µM.

Take `COc1ccc(N2C(=O)[C@@H](C)N(C3CCC4(CC3)CC4)c3nc(Nc4cc(F)c5[nH]ncc5c4)ncc32)cc1OC` [Example 299, (7R)-5-(3,4-dimethoxyphenyl)-2-[(7-fluoro-1H-indazol-5-yl)amino]-7-methyl-8-(spiro[2.5]oct-6-yl)-7,8-dihydropteridin-6(5H)-one]: the IC50 is at most 0.1 µM.

As for `C[C@@H]1C(=O)N(c2ccc[n+]([O-])c2)c2cnc(Nc3cc(F)c4[nH]ncc4c3)nc2N1C1CCCCC1` [Example 303, (7R)-8-cyclohexyl-2-[(7-fluoro-1H-indazol-5-yl)amino]-7-methyl-5-(1-oxidopyridin-3-yl)-7,8-dihydropteridin-6(5H)-one], the half-maximal inhibitory concentration (IC50) is at most 0.1 µM.

As for `CC(C)CCn1c(=O)c(=O)n(-c2ccccc2)c2cnc(Nc3ccc4[nH]ncc4c3)nc21` [Example 305, 2-(1H-indazol-5-ylamino)-8-(3-methylbutyl)-5-phenyl-5,8-dihydropteridine-6,7-dione], the half-maximal inhibitory concentration (IC50) is above 1 µM.

On to `CC(C)CCn1c(=O)c(=O)n(-c2ccccc2)c2cnc(Nc3ccc4c(c3)CC(=O)N4)nc21` [Example 306, 8-(3-methylbutyl)-2-[(2-oxo-2,3-dihydro-1H-indol-5-yl)amino]-5-phenyl-5,8-dihydropteridine-6,7-dione], for which the 50% inhibitory concentration (IC50) was above 1 µM.

For the compound `O=c1c(=O)n(C2CCCC2)c2nc(Nc3ccc4[nH]ncc4c3)ncc2n1-c1ccccc1` [Example 307, 8-cyclopentyl-2-(1H-indazol-5-ylamino)-5-phenyl-5,8-dihydropteridine-6,7-dione], the IC50 lay within 0.1 to 1 µM.
